Like-named read-outs stand apart in the source and are kept apart here.
Columns and labels:
mouse sEH = target: T1, mouse sEH (Mus musculus, UniProt P34914); experiment: Inhibition of recombinant mouse sEH, IC50 assay with 4-nitrophenyl-trans-2,3-epoxy-3-phenylpropyl carbonate as substrate; format: biochemical
T1 construct: made in house; host or cells: baculovirus expression system
T1 sequence (P34914 1-554): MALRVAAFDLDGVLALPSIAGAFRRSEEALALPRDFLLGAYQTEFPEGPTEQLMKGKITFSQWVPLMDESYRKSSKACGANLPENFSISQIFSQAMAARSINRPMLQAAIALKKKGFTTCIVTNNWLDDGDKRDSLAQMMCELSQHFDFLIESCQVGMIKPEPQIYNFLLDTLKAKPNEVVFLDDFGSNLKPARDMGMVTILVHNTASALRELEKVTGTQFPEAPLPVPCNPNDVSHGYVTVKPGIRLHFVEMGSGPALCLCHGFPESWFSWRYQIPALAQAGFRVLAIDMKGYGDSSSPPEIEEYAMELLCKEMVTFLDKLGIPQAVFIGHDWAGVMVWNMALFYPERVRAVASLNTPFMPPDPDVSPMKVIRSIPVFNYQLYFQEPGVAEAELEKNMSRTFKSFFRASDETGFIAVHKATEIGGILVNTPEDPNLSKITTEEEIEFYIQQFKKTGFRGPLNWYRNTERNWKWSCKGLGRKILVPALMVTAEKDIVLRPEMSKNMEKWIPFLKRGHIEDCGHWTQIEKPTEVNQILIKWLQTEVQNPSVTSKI
Description: (§1) Assays were performed in triplicate. […] The curve was generated from at least three separate runs, each in triplicate, to obtain the standard deviation (SD) given in Table 1 thru Table 4.

human sEH = target: T2, human sEH (Homo sapiens, UniProt P34913); experiment: Inhibition of recombinant human sEH, IC50 assay with 4-nitrophenyl-trans-2,3-epoxy-3-phenylpropyl carbonate as substrate; format: biochemical; settings: for IC90: 0.24 μM enzyme
T2 construct: made in house; host or cells: baculovirus expression system
T2 sequence (P34913 1-555): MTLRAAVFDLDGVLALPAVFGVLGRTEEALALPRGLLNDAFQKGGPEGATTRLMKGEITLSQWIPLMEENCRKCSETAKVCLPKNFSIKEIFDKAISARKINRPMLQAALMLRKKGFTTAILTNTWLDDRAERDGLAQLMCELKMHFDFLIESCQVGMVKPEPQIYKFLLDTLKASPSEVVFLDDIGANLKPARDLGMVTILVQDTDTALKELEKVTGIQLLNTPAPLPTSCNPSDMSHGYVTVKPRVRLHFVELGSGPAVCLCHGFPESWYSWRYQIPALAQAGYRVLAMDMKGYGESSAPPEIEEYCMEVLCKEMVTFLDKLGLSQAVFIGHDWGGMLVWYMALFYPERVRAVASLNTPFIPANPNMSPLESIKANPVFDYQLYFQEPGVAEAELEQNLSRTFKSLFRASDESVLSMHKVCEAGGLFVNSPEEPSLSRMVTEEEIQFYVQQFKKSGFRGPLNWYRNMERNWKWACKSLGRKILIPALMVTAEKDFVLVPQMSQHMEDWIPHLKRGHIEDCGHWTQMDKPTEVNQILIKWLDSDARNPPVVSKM
Description: as §1

[1] = Table 1, 0.12 μM enzyme, 5 min preincubation, pH 7.4, 30° C., [S] = 40 μM, means ± SD of three experiments, read-out: IC50 (μM) Mouse sEH
[2] = Table 1, […] enzyme, 5 min preincubation, pH 7.4, 30° C., [S] = 40 μM, means ± SD of three experiments, read-out: IC50 (μM) Human sEH
[3] = Table 5, 0.12 μM enzyme, 5 min preincubation, pH 7.4, 30° C., means ± SD
[4] = Table 5, […] enzyme, 5 min preincubation, pH 7.4, 30° C., means ± SD, read-out: Mouse sEH IC50
[5] = Table 5, 5 min preincubation, pH 7.4, 30° C., means ± SD
[6] = Table 5, […] enzyme, 5 min preincubation, pH 7.4, 30° C., means ± SD, read-out: Human sEH IC50
[7] = Table 9, established protocols, read-out: IC50 (μM) Mouse sEH
[8] = Table 9, established protocols, read-out: IC50 (μM) Human sEH
[9] = Tables 17a and b, read-out: IC50 (μM) Mouse sEH
[10] = Tables 17a and b, read-out: IC50 (μM) Human sEH

| SMILES | IC90 (mouse sEH; [3]) [nM] | IC50 (mouse sEH; [4]) [µM] | IC90 (human sEH; [5]) [nM] | IC50 (human sEH; [6]) [µM] | further results |
| --- | --- | --- | --- | --- | --- |
| O=C(NCCCCCCCCCCCC(=O)OCc1ccccc1)NC12CC3CC(CC(C3)C1)C2 [Compound 804, 1-(1-Adamantyl)-3-(11-benzyloxycarbonylundecyl)urea] | – | – | – | – | IC50 (mouse sEH; Table 4, 0.12 μM enzyme, 5 min preincubation, pH 7.4, 30° C., means ± SD, read-out: IC50 (μM) Mouse sEH): 0.07 ± 0.01 µM; IC50 (human sEH; Table 4, […] enzyme, 5 min preincubation, pH 7.4, 30° C., means ± SD, read-out: IC50 (μM) Human sEH): 0.13 ± 0.01 µM |
| CCCCCOC(=O)CCCCC(=O)NC12CC3CC(CC(C3)C1)C2 [Compound 834] | – | – | – | – | IC50 (mouse sEH; Table 8, established protocols, read-out: IC50 (μM) Mouse sEH): 0.34 ± 0.01 µM; IC50 (human sEH; Table 8, established protocols, read-out: IC50 (μM) Human sEH): 2.4 ± 0.2 µM |
| COC(=O)CCCCNC(=O)NC1CCCCC1 [Compound 854] | – | – | – | – | IC50 (mouse sEH; [1]): 0.13 ± 0.03 µM; IC50 (human sEH; [2]): 5 ± 0.6 µM |
| CCOC(=O)COC(=O)CCCNC(=O)NC12CC3CC(CC(C3)C1)C2 [Compound 857] | 110 ± 10 | 0.05 ± 0.01 | 9000 ± 2000 | 0.39 ± 0.01 | – |
| CCOC(=O)CCCOC(=O)CCCNC(=O)NC12CC3CC(CC(C3)C1)C2 [Compound 858] | 160 ± 10 | 0.05 ± 0.01 | 5000 ± 100 | 0.12 ± 0.01 | – |
| CCCCCOC(=O)c1cccc(NC(=O)NC23CC4CC(CC(C4)C2)C3)c1 [Compound 859] | – | – | – | – | IC50 (mouse sEH; [7]): 0.05 ± 0.01 µM; IC50 (human sEH; [8]): 0.1 ± 0.01 µM |
| CCCCCOC(=O)c1ccc(NC(=O)NC23CC4CC(CC(C4)C2)C3)cc1 [Compound 860] | – | – | – | – | IC50 (mouse sEH; [7]): 0.05 ± 0.01 µM; IC50 (human sEH; [8]): 0.1 ± 0.01 µM |
| CCCCCOC(=O)C1CCCC(NC(=O)NC23CC4CC(CC(C4)C2)C3)C1 (centres unmarked) [Compound 861] | – | – | – | – | IC50 (mouse sEH; [7]): 0.05 ± 0.01 µM; IC50 (human sEH; read-out: IC50 (μM) Human sEH): 0.1 ± 0.01 µM |
| CCCCCOC(=O)C1CCC(NC(=O)NC23CC4CC(CC(C4)C2)C3)CC1 (centres unmarked) [Compound 863] | – | – | – | – | IC50 (mouse sEH; [7]): 0.05 ± 0.01 µM; IC50 (human sEH; [8]): 0.12 ± 0.01 µM |
| CCOC(=O)CCOC(=O)CCCNC(=O)NC12CC3CC(CC(C3)C1)C2 [Compound 876] | 630 ± 20 | 0.05 ± 0.01 | 9000 ± 2000 | 0.54 ± 0.05 | – |
| CCOC(=O)CCCCOC(=O)CCCNC(=O)NC12CC3CC(CC(C3)C1)C2 [Compound 877] | 100 ± 10 | 0.05 ± 0.01 | 1500 ± 100 | 0.13 ± 0.01 | – |
| CCOC(=O)CCCCCCOC(=O)CCCNC(=O)NC12CC3CC(CC(C3)C1)C2 [Compound 878] | 130 ± 10 | 0.05 ± 0.01 | 810 ± 10 | 0.12 ± 0.01 | – |
| CCOC(=O)CCCCCCCCCCCOC(=O)CCCNC(=O)NC12CC3CC(CC(C3)C1)C2 [Compound 882] | 630 ± 40 | 0.05 ± 0.01 | 1800 ± 200 | 0.1 ± 0.01 | – |
| O=C(O)CCCCNC(=O)NC1CCCCC1 [Compound 884] | – | – | – | – | IC50 (mouse sEH; [1]): 0.25 ± 0.02 µM; IC50 (human sEH; [2]): 2.4 ± 0.1 µM |
| C#CCCCCCCNC(=O)NC12CC3CC(CC(C3)C1)C2 [Compound 900] | – | – | – | – | IC50 (mouse sEH; [9]): 0.05 ± 0.01 µM; IC50 (human sEH; [10]): 0.1 ± 0.01 µM |
| CS(=O)(=O)NCCCCCCCCCCCCNC(=O)NC12CC3CC(CC(C3)C1)C2 [Compound 901] | – | – | – | – | IC50 (mouse sEH; [9]): 0.07 ± 0.01 µM; IC50 (human sEH; [10]): 0.1 ± 0.01 µM |
| O=C(NCCCCCCCCCCCCN[S+]([O-])NC12CC3CC(CC(C3)C1)C2)NC12CC3CC(CC(C3)C1)C2 (centres unmarked) [Compound 902] | – | – | – | – | IC50 (mouse sEH; [9]): 0.45 ± 0.01 µM; IC50 (human sEH; [10]): 0.44 ± 0.01 µM |
| O=C(NC12CC3CC(CC(C3)C1)C2)C(F)(F)C(F)(F)C(F)(F)C(F)(F)C(F)(F)C(F)(F)C(F)(F)C(F)(F)C(F)(F)C(F)(F)C(F)(F)F [Compound 903] | – | – | – | – | IC50 (mouse sEH; [9]): 0.1 ± 0.01 µM; IC50 (human sEH; [10]): 0.01 ± 0.01 µM |
| CCCCC(CC)OC(=O)C1CCCC(NC(=O)NC23CC4CC(CC(C4)C2)C3)C1 (centres unmarked) [Compound 904] | – | – | – | – | IC50 (mouse sEH; [7]): 0.05 ± 0.01 µM; IC50 (human sEH; read-out: IC50 (μM) Human sEH): 0.1 ± 0.01 µM |

Continued, in another order:

| IC90 (mouse sEH; [3]) [nM] | IC50 (mouse sEH; [4]) [µM] | IC90 (human sEH; [5]) [nM] | IC50 (human sEH; [6]) [µM] | SMILES | further results |
| --- | --- | --- | --- | --- | --- |
| 160 ± 20 | 0.05 ± 0.01 | 720 ± 10 | 0.11 ± 0.01 | CCOC(=O)CCCCCCCOC(=O)CCCNC(=O)NC12CC3CC(CC(C3)C1)C2 [Compound 879] | – |
| 260 ± 30 | 0.05 ± 0.01 | 680 ± 10 | 0.1 ± 0.01 | CCOC(=O)CCCCCCCCCOC(=O)CCCNC(=O)NC12CC3CC(CC(C3)C1)C2 [Compound 880] | – |
| 350 ± 50 | 0.05 ± 0.01 | 1200 ± 100 | 0.1 ± 0.01 | CCOC(=O)CCCCCCCCCCOC(=O)CCCNC(=O)NC12CC3CC(CC(C3)C1)C2 [Compound 881] | – |

Reference: patent US20050164951A1, “Inhibitors for the soluble epoxide hydrolase” (The Regents of the University of California, priority 2003, published 2005)
